Read-outs that look alike come from different tables or passages of the source.

As usually defined, the IC50 is the point on the concentration scale where inhibition reaches its midpoint. A word on the MTD: it is the largest dose that counted as tolerated. A higher MTD goes with a wide tolerated range.

For series [1], the system named is PC3 cells. As to the kind of experiment: In vitro cytotoxicity, MTT assay. It counts as cell-based, human. Conditions: 72 h. The method, then: (§1) A series of in vitro cytotoxicity assays were performed to understand the anti-cancer properties of platinum(IV)-encapsulated nanoparticles, using human prostate cancer cells, and directly compared its efficacy to that of free cisplatin. The choice of the cancer cells was based on the presence of PSMA, as mentioned before. […] As shown in this figure, the Pt(IV)encapsulated polymeric nanoparticles containing PSMA aptamers on the surface (Pt—NP-Apt) were highly cytotoxic to the LNCaP cells, which up-regulate PSMA on the surface, giving an IC50 value of 0.03 μM. […] The PSMA^+ aptamer targeted Pt(IV)-encapsulated PLGA-b-PEG nanoparticles (Pt—Np-Apt) were 80 times more toxic in the PSMA LNCaP cells, indicating potential application of these nanoparticles in human prostate cancer.
On the technique in general: Tetrazolium dyes change colour on reduction, which living cells bring about.

In series [2] the test system is PSMA+ LNCaP cells. As to the kind of experiment: In vitro cytotoxicity, MTT assay. In kind it is cell-based, human. Conditions: 72 h. As for the experimental part: as §1
Series [3] deals with Male Sprague Dawley Rats. As to the kind of experiment: Maximum tolerated dose (MTD) study, intravenous. In kind it is in vivo. Particulars: for Death: 3 rats; for dose tolerated by the rats / MTD: i.v.; for dose tolerated by the rats: survival; for MTD: 14 days monitoring. From the text: The maximum tolerated dose (MTD) of chemotherapeutic agents may be a critical factor for achieving optimal therapeutic benefit. The effectiveness of chemotherapeutic agents is generally proportional to the dose of the agents at their targets; however, the dose may be limited by systemic toxicity. In this non-limiting example, the therapeutic effectiveness of a platinum(IV) prodrug was attempted to be increased by increasing the maximum tolerated dose (MTD) of the prodrug by using a polymeric nanoparticle drug delivery systems. Various doses of cisplatin, Pt(IV)-prodrug (compound 1 from Example 1), Pt—NP (from Example 1), or PLGA-PEG-NP (control, nanoparticles not comprising platinum complexes) were injected intravenously and the MTD was estimated based on the threshold at which all […] survived.
Male Sprague Dawley Rats were used for MTD determination with intravenous administration. All rats treated with plain nanoparticles tolerated these doses. In the Pt—NP group, rats receiving doses up to 40 mg/kg tolerated the dose, but two of three in the 50 and 60-mg/kg groups died. Only the dose of 20 mg/kg free cisplatin or Pt(IV)-prodrug were tolerated by the rats. To further define the MTD, overall toxicity was monitored for 14 days. As a sign of toxicity, the body weights of rats were measured.

For series [4] the following is noted: 1 h post administration, literature value; cited from earlier work.
Series [5] in a line: Cyclic voltammetry, Pt(IV)/Pt(II) reduction potential. In kind it is physicochemical. The method, then: The identity of the platinum species released from the polymeric nanoparticles was determined by ESI-MS. […] The redox potentials were also investigated for reduction of compound 1 at various pH values. […] NPs before reaching the nuclear DNA.
Series [6] is described as follows: Blood circulation and excretion studies. In kind it is in vivo. Particulars: rat, 2 mg/kg i.v., 1 h post administration. The method, then: Male Sprague Dawley rats were used in this study. Separate groups of animals received i.v. injections of Pt—NP (2 mg/kg) or Pt(IV)-prodrug (2 mg/kg) and were placed in metabolism cages. Blood was collected at predetermined time points in heparinized tubes. Whole organs or representative tissue samples were removed and weighed where necessary. Urine was collected for 24 h. Plasma was obtained from the blood samples by […]. Samples were analyzed for their platinum content using a Perkin Elmer Flameless Atomic Absorption Spectrophotometer.

Consider “[cis-Pt(NH3)2Cl2] [cisplatin, reference compound]”, for which the IC50 in series [1] came to 180 nM; in series [2] it was 2400 nM. Further, the Death is 0 in series [3] (5 mg/kg i.v.), 0 in series [3] (10 mg/kg i.v.), 0 in series [3] (20 mg/kg i.v.) and 3 in series [3] (40 mg/kg i.v.). For the same substance, in series [3], the “dose tolerated by the rats” value is recorded as 20 mg/kg. This substance returned an MTD in series [3] (rats) of 20 mg/kg. In addition, in series [4], the “platinum dose remaining in the systemic circulation” value is 1.5%.
Take “c,c,t-[Pt(NH3)2(O2CCH2CH2CH2CH2CH2)2Cl2] [compound 1]”: the “Pt(IV)/Pt(II) couple, irreversible cyclic voltammetric response” value in series [5] (1:4 DMF-sodium phosphate buffer, pH 6.0) was approximately −0.243 V vs. NHE; in series [5] (1:4 DMF-sodium phosphate buffer, pH 7.4) it was approximately −0.233 V vs. NHE; in series [5] (MeCN-0.1 M TBAPF6) it was approximately −0.805 V vs. NHE. The Death in series [3] (5 mg/kg i.v.) is reported as 0; in series [3] (10 mg/kg i.v.), 0; in series [3] (20 mg/kg i.v.), 0; in series [3] (40 mg/kg i.v.) it was 2. Besides, in series [3], the “dose tolerated by the rats” value amounted to 20 mg/kg. Moreover, the MTD in series [3] (rats) came out at 20 mg/kg. Besides, in series [3] (rats, up to 20 mg/kg, 14 days), the body weight change result is listed as “did not show any weight loss”. The “platinum dose remaining in the systemic circulation” value in series [6] is 15.6%.
